From US7208500B2, “Thienopyridine-phenylacetamides and their derivatives useful as new anti-angiogenic agents” (Agouron Pharmaceuticals, Inc., priority 2003, dated 2007)

Experiments:
[1] = target: T1, FGF-R1 intracellular kinase domain (Homo sapiens, UniProt P11362, C488A/C584S/L457V); test: FGF-R spectrophotometric assay; format: biochemical; details: 50 nM test compound; read-out: FGF-P (% inh @ 50 nM)
T1 construct: starting from the endogenous methionine residue 456 to glutamate 766; made in house; host or cells: baculovirus vector expression system
T1 sequence (P11362 456-766 L457V/C488A/C584S): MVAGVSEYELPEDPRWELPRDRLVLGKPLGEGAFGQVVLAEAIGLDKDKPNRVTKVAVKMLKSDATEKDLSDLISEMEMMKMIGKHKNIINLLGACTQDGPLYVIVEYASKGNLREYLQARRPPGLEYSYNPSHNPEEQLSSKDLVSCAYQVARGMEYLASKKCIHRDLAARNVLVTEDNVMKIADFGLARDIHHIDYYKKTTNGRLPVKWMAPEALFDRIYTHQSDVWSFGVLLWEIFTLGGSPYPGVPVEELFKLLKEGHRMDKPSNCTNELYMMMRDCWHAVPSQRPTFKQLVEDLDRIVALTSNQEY
Experimental: The intracellular kinase domain of human FGF-R1 was expressed using the baculovirus vector expression system starting from the endogenous methionine residue 456 to glutamate 766, according to the residue numbering system of Mohammadi et al., Mol. Cell. Biol., 16, 977–989 (1996). In addition, the construct also has the following 3 amino acid substitutions: L457V, C488A, and C584S.
The spectrophotometric assay was carried out as described above for VEGF-R2, except for the following changes in concentration: FGF-R=50 nM, ATP=2 mM, and poly(E4Y1)=15 mM.

[2] = tested on: human umbilical vein endothelial cells (HUVEC); test: HUVEC + VEGF proliferation assay; format: cell-based; details: VEGF-stimulated proliferation, final VEGF 6 ng/mL, 72 hours, MTT
Experimental: This assay determines the ability of a test compound to inhibit the growth factor-stimulated proliferation of human umbilical vein endothelial cells (“HUVEC”). HUVEC cells (passage 3–4, Clonetics, Corp.) were thawed into EGM2 culture medium (Clonetics Corp) in T75 flasks. Fresh EGM2 medium was added to the flasks 24 hours later. Four or five days later, cells were exposed to another culture medium (F12K medium supplemented with 10% fetal bovine serum (FBS), […] endothelial cell growth supplement (ECGS), and 0.1 mg/mL heparin). Exponentially-growing HUVEC cells were used in experiments thereafter. Ten to twelve thousand HUVEC cells were plated in 96-well dishes in […] of rich, culture medium (described above). The cells were allowed to attach for 24 hours in this medium. The medium was then removed by aspiration and […] of starvation media (F12K+1% FBS) was added to each well. After 24 hours, […] of test agent dissolved in 1% DMSO in starvation medium or this vehicle alone was added into each treatment well; the final DMSO concentration was 0.1%. One hour later, […] of VEGF (30 ng/mL) in starvation media was added to all wells except those containing untreated controls; the final VEGF concentration was 6 ng/mL. Cellular proliferation was quantified 72 hours later by MTT dye reduction, at which time cells were exposed for 4 hours MTT (Promega Corp.). Dye reduction was stopped by addition of a stop solution (Promega Corp.) and absorbance at 595 nm was determined on a 96-well spectrophotometer plate reader.

[3] = target: T2, unphosphorylated VEGF-R2D50 (FLVK), cytosolic domain of human VEGF-R2 (Homo sapiens, UniProt P35968, DEL940-989/E990V); test: VEGF-R2 coupled spectrophotometric assay (FLVK); format: biochemical
T2 construct: VEGF-R2D50 contains residues 806–939 and 990–1171; made in house; host or cells: baculovirus/insect cell system
T2 sequence (P35968 with tags, fused parts or gaps DEL940-989/E990V limits assumed): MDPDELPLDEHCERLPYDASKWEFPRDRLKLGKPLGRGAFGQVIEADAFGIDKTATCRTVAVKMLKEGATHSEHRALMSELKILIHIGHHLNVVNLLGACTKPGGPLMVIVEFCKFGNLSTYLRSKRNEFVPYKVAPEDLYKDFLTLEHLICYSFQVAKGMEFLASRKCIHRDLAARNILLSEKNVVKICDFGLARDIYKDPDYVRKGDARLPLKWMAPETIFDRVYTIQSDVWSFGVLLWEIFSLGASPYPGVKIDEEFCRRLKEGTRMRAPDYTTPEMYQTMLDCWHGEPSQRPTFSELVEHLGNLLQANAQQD
Description: This construct determines the ability of a test compound to inhibit tyrosine kinase activity. A construct (VEGF-R2D50) of the cytosolic domain of human vascular endothelial growth factor receptor 2 (VEGF-R2) lacking the 50 central residues of the 68 residues of the kinase insert domain was expressed in a baculovirus/insect cell system. Of the 1356 residues of full-length VEGF-R2, VEGF-R2D50 contains residues 806–939 and 990–1171, and also one point mutation (E990V) within the kinase insert domain relative to wild-type VEGF-R2. Autophosphorylation of the purified construct was performed by incubation of the enzyme at a concentration of […] in the presence of 3 mM ATP and 40 mM MgCl2 in 100 mM HEPES, pH 7.5, containing 5% glycerol and 5 mM DTT, at 4° C. for 2 h. […] See Parast et al., Biochemistry, 37, 16788–16801 (1998).
The production of ADP from ATP that accompanies phosphoryl transfer was coupled to oxidation of NADH using phosphoenolpyruvate (PEP) and a system having pyruvate kinase (PK) and lactic dehydrogenase (LDH). The oxidation of NADH was monitored by following the decrease of absorbance at 340 nm (e340=6.22 cm^−1 mM^−1) using a Beckman DU 650 spectrophotometer. Assay conditions for phosphorylated VEGF-R2D50 (indicated as FLVK-P in the tables below) were the following: 1 mM PEP; […]; 50 units of LDH/mL; 20 units of PK/mL; 5 mM DTT; 5.1 mM poly(E4Y1); 1 mM ATP; and 25 mM MgCl2 in 200 mM HEPES, pH 7.5. Assay conditions for unphosphorylated VEGF-R2D50 (indicated as FLVK in the tables) were the following: 1 mM PEP; […]; 50 units of LDH/mL; 20 units of PK/mL; 5 mM DTT; 20 mM poly(E4Y1); 3 mM ATP; and 60 mM MgCl2 and 2 mM MnCl2 in 200 mM HEPES, pH 7.5. Assays were initiated with 5 to 40 nM of enzyme. Ki values were determined by measuring enzyme activity in the presence of varying concentrations of test compounds. The percent inhibition at 50 nm (% inhibition@50 nm) was determined by linear least-squares regression analysis of absorpbance as a function of time. The binding inhibitions were fitted to equation as described by Morrison. The data were analyzed using Enzyme Kinetic and Kaleidagraph software.

inhibition at 0.05 µM [1]	Ki [3]	SMILES	IC50 [2]
0 to 5%	–	Cc1cc(C)nc(NC(=O)Cc2ccc(Oc3ccnc4cc(C(=O)N5C[C@@H](O)[C@@H](O)C5)sc34)cc2)c1 [Example 3]	< 1 nM
5 to 10%	< 1 nM	Cc1cc(C)nc(NC(=O)Cc2ccc(Oc3ccnc4cc(C(=O)N5CC[C@@H](N(C)C)C5)sc34)cc2)c1 [Example 4, 2-{4-[2-((R)-3-Dimethylamino-pyrrolidine-1-carbonyl)-thieno[3,2-b]pyridin-7-yloxy]-phenyl}-N-(4,6-dimethyl-pyridin-2-yl)-acetamide]	1 to 10 nM
5 to 10%	< 1 nM	Cc1cc(C)nc(NC(=O)Cc2ccc(Oc3ccnc4cc(C(=O)N(C)CCN(C)C)sc34)cc2)c1 [Example 6, 7-{4-[(4,6-Dimethyl-pyridin-2-ylcarbamoyl)-methyl]-phenoxy}-thieno[3,2-b]pyridine-2-carboxylic acid (2-dimethylamino-ethyl)-methyl-amide]	> 10 nM
5 to 10%	< 1 nM	Cc1cc(C)nc(NC(=O)Cc2ccc(Oc3ccnc4cc(C(=O)N(C)C)sc34)cc2)c1 [Example 7, 7-{4-[(4,6-Dimethyl-pyridin-2-ylcarbamoyl)-methyl]-phenoxy}-thieno[3,2-b]pyridine-2-carboxylic acid dimethylamide]	< 1 nM
0 to 5%	1 to 10 nM	CN(C)C(=O)c1cc2nccc(Oc3ccc(CC(=O)Nc4ccc(Cl)cn4)cc3)c2s1 [Example 8, 7-{4-[(5-Chloro-pyridin-2-ylcarbamoyl)-methyl]-phenoxy}-thieno[3,2-b]pyridine-2-carboxylic acid dimethylamide]	> 10 nM
5 to 10%	< 1 nM	Cc1cc(C)nc(NC(=O)Cc2ccc(Oc3ccnc4cc(-c5nccn5C)sc34)cc2)c1 [Example 9, N-(4,6-Dimethyl-pyridin-2-yl)-2-{4-[2-(1-methyl-1H-imidazol-2-yl)-thieno[3,2-b]pyridin-7-yloxy]-phenyl}-acetamide]	< 1 nM
0 to 5%	< 1 nM	Cn1ccnc1-c1cc2nccc(Oc3ccc(CC(=O)Nc4ccc(Cl)cn4)cc3)c2s1 [Example 10, N-(5-Chloro-pyridin-2-yl)-2-{4-[2-(1-methyl-1H-imidazol-2-yl)-thieno[3,2-b]pyridin-7-yloxy]-phenyl}-acetamide]	< 1 nM
0 to 5%	< 1 nM	Cc1ccnc(NC(=O)Cc2ccc(Oc3ccnc4cc(-c5nccn5C)sc34)cc2)c1 [Example 11, 2-{4-[2-(1-Methyl-1H-imidazol-2-yl)-thieno[3,2-b]pyridin-7-yloxy]-phenyl}-N-(4-methyl-pyridin-2-yl)-acetamide]	> 10 nM
5 to 10%	< 1 nM	Cn1ccnc1-c1cc2nccc(Oc3ccc(CC(=O)Nc4cc5ccccc5cn4)cc3)c2s1 [Example 12, N-Isoquinolin-3-yl-2-(4-[2-(1-methyl-1H-imidazol-2-yl)-thieno[3,2-b]pyridin-7-yloxy]-phenyl}-acetamide]	> 10 nM
5 to 10%	< 1 nM	Cn1ccnc1-c1cc2nccc(Oc3ccc(CC(=O)Nc4ccc(C(F)(F)F)cn4)cc3)c2s1 [Example 13, 2-{4-[2-(1-Methyl-1H-imidazol-2-yl)-thieno[3,2-b]pyridin-7-yloxy]-phenyl}-N-(5-trifluoromethyl-pyridin-2-yl)-acetamide]	> 10 nM
0 to 5%	–	Cc1cc(C)nc(NC(=O)Cc2ccc(Oc3ccnc4cc(C(=O)N5CCC5)sc34)cc2)c1 [Example 22, 2-{4-[2-(Azetidine-1-carbonyl)-thieno[3,2-b]pyridin-7-yloxy]-phenyl}-N-(4,6-dimethyl-pyridin-2-yl)-acetamide]	< 1 nM
0 to 5%	–	O=C(Cc1ccc(Oc2ccnc3cc(C(=O)N4CCC4)sc23)cc1)Nc1ccc2[nH]ncc2c1 [Example 36, 2-{4-[2-(Azetidine-1-carbonyl)-thieno[3,2-b]pyridin-7-yloxy]-phenyl}-N-(1H-indazol-5-yl)-acetamide]	> 10 nM
0 to 5%	–	O=C(Cc1ccc(Oc2ccnc3cc(C(=O)N4CCC4)sc23)cc1)Nc1ccc(N2CCOCC2)nc1 [Example 38, 2{-4-[2-(Azetidine-1-carbonyl)-thieno[3,2-b]pyridin-7-yloxy]-phenyl}-N-(6-morpholin-4-yl-pyridin-3-yl)-acetamide]	> 10 nM
0 to 5%	–	Cc1cc(NC(=O)Cc2ccc(Oc3ccnc4cc(C(=O)N5CCC5)sc34)cc2Cl)nn1C [Example 56, 2-{4-[2-(Azetidine-1-carbonyl)-thieno[3,2-b]pyridin-7-yloxy]-2-chloro-phenyl}-N-(1,5-dimethyl-1H-pyrazol-3-yl)-acetamide]	> 10 nM
0 to 5%	> 10 nM	COC(C(=O)Nc1cc(C)no1)c1ccc(Oc2ccnc3cc(C(=O)N4CCC4)sc23)cc1 (centres unmarked) [Example 79, 2-{4-[2-(Azetidine-1-carbonyl)-thieno[3,2-b]pyridin-7-yloxy]-phenyl}-2-methoxy-N-(3-methyl-isoxazol-5-yl)-acetamide]	–
5 to 10%	> 10 nM	Cc1cc(NC(=O)C(O)c2ccc(Oc3ccnc4cc(C(=O)N5CCC5)sc34)cc2)on1 (centres unmarked) [Example 80, 2-{4-[2-(Azetidine-1-carbonyl)-thieno[3,2-b]pyridin-7-yloxy]-phenyl}-2-hydroxy-N-(3-methyl-isoxazol-5-yl)-acetamide]	–
0 to 5%	> 10 nM	CCCCNC(=O)C(O)c1ccc(Oc2ccnc3cc(C(=O)N4CCC4)sc23)cc1 (centres unmarked) [Example 82, 2-{4-[2-(Azetidine-1-carbonyl)-thieno[3,2-b]pyridin-7-yloxy]-phenyl}-N-butyl-2-hydroxy-acetamide]	–
5 to 10%	> 10 nM	COC(C(=O)Nc1ccccn1)c1ccc(Oc2ccnc3cc(C(=O)N4CCC4)sc23)cc1 (centres unmarked) [Example 83, 2-{4-[2-(Azetidine-1-carbonyl)-thieno[3,2-b]pyridin-7-yloxy]-phenyl}-2-methoxy-N-pyridin-2-yl-acetamide]	–
5 to 10%	> 10 nM	O=C(Nc1ccccn1)C(O)c1ccc(Oc2ccnc3cc(C(=O)N4CCC4)sc23)cc1 (centres unmarked) [Example 84, 2-{4-[2-(Azetidine-1-carbonyl)-thieno[3,2-b]pyridin-7-yloxy]-phenyl}-2-hydroxy-N-pyridin-2-yl-acetamide]	–
